Like-named read-outs stand apart in the source and are kept apart here.
How the values were obtained:
[1] = tested on: maize elite inbred P38; assay: Pre-harvest ear injection, then Agrobacterium-mediated transformation, inbred P38; assay type: in vivo
Protocol: (§1) Ears from greenhouse-grown or field-grown maize elite inbreds, P38 and N46, were treated with one of the following agents or combinations of agents at three days after pollination: dicamba, hormone cocktail, 2,4-D (2,4-dichlorophenoxyacetic acid), callus medium, water, ABA, Pluronic F68, proline mix, ACC, AVG, salts cocktail 4, salts cocktail 2 (Gamborg et al. (1968) Exp. Cell Res. 50:151), salts cocktail 1 (Murashige and Skoog (1962) Physiol. Plant. 15:473), salts cocktail 3 (Chu et al. (1975) Scientia Sinic. 18:659), 2,4D+salts cocktail 1, 2,4-D+salts cocktail 3, 2,4-D+dicamba and dicamba+ACC. The solutions were filter sterilized before applying to the ears at a rate of 10 mL/ear. The solutions were applied to the ears by injecting between the silks and husks at three days post pollination. Care was taken not to disrupt the ears.
(§2) Agrobacterium-mediated transformation of maize was also employed. See, U.S. application Ser. No. 08/788,018, herein incorporated by reference.
(§3) The ear injection was conducted as described in Example I. Other synthetic auxins were tested for their effects on the transformation of N46 and P38 maize.
(§4) An endogenous plant growth regulator, abscisic acid (ABA), and other compounds known to influence plant growth were tested for their effects on maize transformation when applied to ears at four days after pollination using the injection method described in Example I. Additionally, the effect of the injection of water was also tested. […] ACC is a product of the reaction catalyzed by ACC synthase and a substrate of the reaction catalyzed by ACC oxidase, the ethylene-forming enzyme. AVG, on the other hand, is an inhibitor of ACC synthase.
Several nitrogen-containing treatments were applied to ears at three days after pollination. The treatments employed are salt formulations that are commonly used in plant tissue culture media including salts cocktail 4, salts cocktail 2, salts cocktail 1 and salts cocktail 3.
Finally, some combination treatments were examined for their effects on the transformation of N46 and P38 maize (Table 7).

[2] = tested on: maize ears; assay: Lanolin-paste application to ears, then particle bombardment transformation; assay type: in vivo; conditions: for 21 Day Callus Response / 42 Day Callus Response / Regenerable Colonies / Plants Transformed: 0.5% in lanolin paste on half an ear, three days after pollination; for Plants Transformed: particle bombardment; for recovery of regenerable colonies and transformed plants (in words): lanolin paste, versus lanolin controls and non-treated control
Description: Transformation-enhancing compounds were also introduced via lanolin. kLanolin paste was typically applied at a mass of 1 gram per ear. Husks were peeled back, but not removed, silks were removed, and the lanolin mixed with the compound was applied to the pericarp of the developing seed using a spatula. Ears were divided into halves longitudinally: one half would received lanolin with the compound and the other half received only lanolin.
Al media recipes are in the Table 10-18.
The effects of pre-harvest ear treatments of zeatin riboside and 2,4-D on maize transformation were investigated. Both agents were applied to separate ears at three days after pollination in a lanolin paste. The method employed for applying the transformation-enhancing agents of the invention to ears in lanolin paste is described in Example I. Ears were divided into halves longitudinally with one half of the ear receiving lanolin with zeatin riboside or 2,4-D and the other half receiving only lanolin. An additional ear that was not treated was used as a control.

[3] = tested on: maize elite inbred N46; assay: Pre-harvest ear injection, then Agrobacterium-mediated transformation, inbred N46; assay type: in vivo; conditions: for percent of transformed colonies relative to the no-infusion control (in words): pre-harvest ear injection
Protocol: as §1, §2, §3, §4
Several nitrogen-containing treatments were applied to ears at three days after pollination. The treatments employed are salt formulations that are commonly used in plant tissue culture media including salts cocktail 4, salts cocktail 2, salts cocktail 1 and salts cocktail 3. […]

[4] = tested on: maize elite inbred P38
Protocol: as §1
(§5) For transformation by particle bombardment, maize ears were harvested at ten days after pollination and surface sterilized in 50% CHLOROX™ laundry bleach plus 0.5% Tween 20 surfactant for 20 minutes, and rinsed two times with sterile water. The immature embryos were excised and placed embryo axis side down (scutellum side up), 25 embryos per plate, on 604 medium, incubated at 28° C. in the dark for three days. Prior to bombardment, all embryos were transferred to plates containing 604 medium and 15% sucrose and then aligned within the 2.5-cm target zone in preparation for bombardment. Al media recipes are in the Table 10-18.
A plasmid vector comprising the coding region of uidA operably linked to a ubiquitin promoter was made. This plasmid DNA plus plasmid DNA containing a BAR selectable marker gene operably linked to the double 35S promoter was precipitated onto 1.1 μm (average diameter) tungsten pellets using a CaCl2 precipitation procedure as follows:
The final mixture was sonicated briefly and allowed to incubate under constant vortexing for 10 minutes. After the precipitation period, the tubes were centrifuged briefly, liquid removed, washed with […] 100% ethanol, and centrifuged for 30 seconds. Again the liquid was removed, and 60 μL 100% ethanol was added to the final tungsten particle pellet. For particle gun bombardment, the tungsten/DNA particles were briefly sonicated and 10 μL spotted onto the center of each macrocarrier and allowed to dry about two minutes before bombardment.
(§6) The sample plates were bombarded at level #4 in a Biorad PDS-1000 Helium gun. All samples received a single shot at 650 PSI, with a total of six aliquots taken from each tube of prepared particles/DNA. Following bombardment the embryos were maintained on 604 medium +15% sucrose for three days in the dark, and then transferred to 604S medium with 3 mg/L bialaphos, maintained for three weeks on 3 mg/L bialaphos, and then transferred to 604J at 5 mg/L bialaphos. Once herbicide-resistant colonies were well established and ready for regeneration, approximately eight weeks after bombardment, the herbicide-resistant colonies were transferred to 288O regeneration medium containing 3 mg/L bialaphos, maintained in the dark or seven days, and then transferred to the light at 28° C. for shoot formation and elongation. Callus response, colony and plant recovery and GUS gene expression were monitored during the course of the experiments.
The effects of injecting into ears three days after pollination 10 mL of a 100 μM of dicamba, an auxin analogue, on maize transformation was investigated.

[5] = tested on: maize immature embryos; conditions: for 21 Day Callus Response / 42 Day Callus Response / Colonies to Plants / Colonies to Regeneration / Colonies with GUS Expression: 100 μM ear pre-treatment
Protocol: as §5, §6
Prior to bombardment, freshly excised embryos were placed onto either 560P, 601H, or 604 medium and incubated at 28° C. in the dark for three days. Prior to bombardment, all embryos were transferred to 604 with 15% sucrose. […] Colonies were transferred to regeneration medium containing 3 mg/L Bialaphos after 8-9 weeks in culture.

[6] = Table 5, ear injection three days after pollination, 10 mL/ear
[7] = Table 6, ear injection four days after pollination
[8] = 100 μM ear injection three days after pollination, of 385 embryos
[9] = 10 mL of 100 μM injected into ears three days after pollination, of 385 embryos
[10] = initial culture medium 560P, 79 embryos
[11] = initial culture medium 601H, 84 embryos
[12] = initial culture medium 604, 128 embryos

O=C(O)COc1ccc(Cl)cc1Cl [2,4-D, 2,4-dichlorophenoxyacetic acid]
Number of GUS Positive Colonies [1, 6]: 2
Percent Colony Transformation [1, 6]: 4.20%
percent of transformed colonies relative to the no-infusion control (in words) ([1]; pre-harvest ear injection): significantly greater percentages of transformed colonies than the control
21 Day Callus Response [2]: 15.4%
42 Day Callus Response [2]: 12.5%
Regenerable Colonies [2]: 1.5%
Plants Transformed [2]: 1.5%
recovery of regenerable colonies and transformed plants (in words) [2]: Regenerable colonies and transformed maize plants were recovered
Number of GUS Positive Colonies [3, 6]: 4
Percent Colony Transformation [3, 6]: 2.70%

NC1(C(=O)O)CC1 [ACC, aminocyclopropane-1-carboxylic acid]
Number of GUS Positive Colonies [1, 7]: 0
Percent Colony Transformation [1, 7]: 0%
Number of GUS Positive Colonies [3, 7]: 12
Percent Colony Transformation [3, 7]: 6.80%

C/C(=C\CNc1ncnc2c1ncn2[C@@H]1O[C@H](CO)[C@@H](O)[C@H]1O)CO [Zeatin riboside, zeatin riboside]
21 Day Callus Response [2]: 9.4%
42 Day Callus Response [2]: 9.4%
Regenerable Colonies [2]: 0.6%
Plants Transformed [2]: 0.6%
recovery of regenerable colonies and transformed plants (in words) [2]: Regenerable colonies and transformed maize plants were recovered

COc1c(Cl)ccc(Cl)c1C(=O)O [dicamba]
Number of GUS Positive Colonies [1, 6]: 11
Percent Colony Transformation [1, 6]: 1.10%
Colonies Expressing GUS [4, 8]: 8.6%
Colonies to Plants [4, 8]: 4.2%
Colonies to Regeneration [4, 8]: 29.1%
Plants Transformed ([4]; 100 μM ear injection three days after pollination, particle bombardment, of 385 embryos): 3.11%
colonies that produced escapes ([4]; 100 μM pre-treatment, of the plants recovered): two
21 Day Callus Response [4, 9]: 37.9%
42 Day Callus Response [4, 9]: 40%
56 Day Callus Response [4, 9]: 32.2%
Type I embryogenic callus response rate versus non pre-treated control (in words) ([4]; ears pre-treated with 100 μM): higher early in the experiment, and was maintained over the course of the study
21 Day Callus Response [5, 10]: 12.7%(10)
42 Day Callus Response [5, 10]: 24%(19)
Colonies to Plants [5, 10]: 1.3%(1)
Colonies to Regeneration [5, 10]: 2.5%(2)
Colonies with GUS Expression [5, 10]: 2.5%(2)
21 Day Callus Response [5, 11]: 17.9%(16)
42 Day Callus Response [5, 11]: 16.5%(14)
Colonies to Plants [5, 11]: 0%
Colonies to Regeneration [5, 11]: 4.8%(4)
Colonies with GUS Expression [5, 11]: 2.4%(2)
21 Day Callus Response [5, 12]: 23.4%(30)
42 Day Callus Response [5, 12]: 33%(42)
Colonies to Plants [5, 12]: 0%
Colonies to Regeneration [5, 12]: 11.7%(15)
Colonies with GUS Expression [5, 12]: 4.7%(6)
colonies capable of regeneration ([5]; 100 μM pre-treatment / 560P medium): one
Number of GUS Positive Colonies [3, 6]: 89
Percent Colony Transformation [3, 6]: 9.50%
percent of transformed colonies relative to the no-infusion control (in words) [3]: superior transformation results

CC1=CC(=O)CC(C)(C)[C@@]1(O)/C=C/C(C)=C\C(=O)O [ABA, abscisic acid]
Number of GUS Positive Colonies [1, 7]: 0
Percent Colony Transformation [1, 7]: 0%
Number of GUS Positive Colonies [3, 7]: 25
Percent Colony Transformation [3, 7]: 20%
percent of transformed colonies relative to the no-infusion control (in words) [3]: largest increase in percent colony transformation above the control

— patent US6444470B1, “Transformation-enhancing compositions and methods of use” (Pioneer Hi-Bred International, Inc., priority 1999, dated 2002)
